One series has as its target Complement factor B (Homo sapiens, UniProt P00751). In words: Optical surface plasmon resonance (SPR) binding capacity assay. How it is done: An SPR experiment was carried out at 25° C. In the experiment, a PBS buffer supplemented with 0.05% (v/v) P20 and 5% DMSO was used as a running buffer, and the analytical instrument Biacore 8K of GE Healthcare was used. A CM7 ship (GE Healthcare) was activated with 400 mM EDC and 100 mM NHS at a flow rate of 30 μL/min for 420 s. […] Then the assay chip was treated with 1 M ethanolamine hydrochloride at a flow rate of 10 μL/min for 300 s for chip blocking. The concentration of the test compound was 500 μM, the binding time was 120 s, and the dissociation time was 300 s. Data analysis was performed using a 1:1 binding model (Biacore Insight Evalution Software, Version 2.0.15.12933).

Series [1] addresses T1, complement factor B in human serum (Homo sapiens, UniProt P00751).
T1 construct: from tissue; host or cells: normal human serum (NHS)
In words: Complement hemolytic activity assay (rabbit erythrocytes, normal human serum). The class given is cell-based. How it is done: The hemolysis experiment was carried out by referring to the description in Xuan Yuan et al., Haematologica. […] Prior to the experiment, the optimal concentration of normal human serum (NHS) required to achieve 100% lysis of rabbit erythrocytes (REs) was obtained by titration testing. […] REs (collected from healthy Japanese big-ear white rabbits) freshly suspended in a GVBO buffer comprising 10 mM Mg-EGTA were added to a final concentration of 1×10^8 cells/mL and incubated at 37° C. for 30 min. A GVBO buffer comprising 10 mM Mg-EGTA and comprising NHS and RE but no test compound was used as a positive control group (100% lysis). A GVBO buffer comprising 10 mM Mg-EGTA and comprising inactivated NHS (heated at 56° C. for 30 min or at 65° C. for 5 min) and RE but no test compound was used as a negative control group (0% lysis). The samples were centrifuged at 2000 g for 5 min, and the supernatant was collected. Absorbance at 415 nm (A415) was measured using a microplate reader (Molecular Devices, SpectraMax i3X). IC50 values were calculated from percent hemolysis as a function of test compound concentration by non-linear regression.

Series [2] is described as follows: Liver microsomal stability experiment (rat). The class given is in vitro ADME. How it is done: (§1) A 0.1 M solution of potassium dihydrogen phosphate in distilled water (comprising 1 mM ethylenediaminetetraacetic acid) was taken. Then the pH was adjusted to 7.4 with the 0.1 M solution of dipotassium phosphate in distilled water (comprising 1 mM ethylenediaminetetraacetic acid).
Rat: SD Rat Liver Microsomes, Cat. No.: LM-DS-02M, RILD Research Institute for Liver Diseases (Shanghai) Co. Ltd.
(§2) A 10 mM solution of each of the control compound and test compounds was prepared in DMSO. Then 10 μL of the solution was added to 190 μL of acetonitrile to form a 0.5 mM mother liquor. 1.5 μL of the 0.5 mM compound mother liquor was measured out, and […] of 20 mg/mL liver microsomes and 479.75 μL of the buffer were added. (The actual preparation amount can be adjusted according to use).
(§3) A 10 mg/mL solution of reduced coenzyme II (NADPH) was prepared in the buffer. A 96-well plate was placed on ice. Wells corresponding to different time points (0, 10, 30, 60 and 90 min, Non-NADPH) were set for each compound. 30 μL of the working solution was added to each well. For 0 min wells, 155 μL of glacial acetonitrile solution (the internal standard concentration was 1 μM) was added first, and after the mixtures were well mixed using a pipet, 15 μL of NADPH (10 mg/mL) was added. Before the reactions were started, the 96-well plate was pre-incubated on a microplate shaker at 37° C. for 5 min. Then 15 μL of NADPH (10 mg/mL) was added to each well to start the metabolic reactions. After the reactions were carried out for 10, 30, 60 and 90 min, 155 μL of glacial acetonitrile solution (the internal standard concentration was 1 μM) was added to the corresponding wells to terminate the reactions. After 90 min, the reaction in the Non-NADPH system was terminated by adding 155 μL of glacial acetonitrile solution (the internal standard concentration was 1 μM). After the reaction was completed, the 96-well plate was shaken on a microplate shaker (600 rpm) for 10 min and then centrifuged at 4° C. at 4000 g for 15 min. 50 μL of the supernatant was added to a new 2 mL 96-well plate, and 300 μL of deionized water was added. The mixture was analyzed on an AB SCIEX ExionLC-Triple Quad 5500 high performance liquid chromatograph-mass spectrometer. The Analyst 1.6.3 software was used.

Series [3] is described as follows: Liver microsomal stability experiment (monkey). The class given is in vitro ADME. To be noted: cynomolgus monkey liver microsomes. How it is done: as §1
Monkey: Cynomolgus Monkey Liver Microsomes, Cat. No.: LM-SXH-02M, RILD Research Institute for Liver Diseases (Shanghai) Co. Ltd.
as §2, §3

Series [4] is described as follows: Liver microsomal stability experiment (human). The class given is in vitro ADME. How it is done: as §1
Human – Pooled Human Liver Microsomes (Mongolian), Cat. No.: LM-R-02M, RILD Research Institute for Liver Diseases (Shanghai) Co. Ltd.
as §2, §3
For orientation: Liver microsomes are vesicles of endoplasmic reticulum, rich in cytochrome P450 enzymes.

Series [5] can be described thus: PK experiment of single intragastric administration to rats. The class given is in vivo. To be noted: male, Wistar Han, plasma, po, rat, 3 mg/kg, mean. How it is done:
Six- to nine-week-old male Wistar han rats (from Shanghai Sippe-Bk Lab Animal Co., Ltd.) were fasted overnight. Each group consisted of 3 rats, and they were given the control compound, the compound of Example 5 and the compound of Example 6, respectively, by intragastric administration at 3 mg/kg at a volume of 10 mL/kg. 0.2 mL of blood was collected from the jugular vein at each time point, anticoagulated with EDTA-K2 and immediately centrifuged at 4000 rpm at 4° C. for 5 min. The supeatant was collected. The samples were cryopreserved in a freezer at −80° C. before analysis. Time points of blood collection: before administration, 5 min 15 min, 30 min, 1 h, 2 h, 4 h, 7 h and 24 h. […] After blood collection at all of the time points was completed, the animals were euthanized. The plasma samples were analyzed by LC-MS/MS. The data were used to calculate kinetic parameters (Tmax, Cmax, T½ and AUC) in the WinNonlin software.

Series [6] can be described thus: PK/PD experiment of single intragastric administration to cynomolgus monkeys: plasma concentration. The format is in vivo. The conditions noted are these: same dose (3 & 30 mpk), FIG. 1. How it is done:
Cynomolgus monkeys were used. Each group consisted of 3 cynomolgus monkeys, and they were given the control compound and the compound of Example 5 (3 & 30 mpk) by intragastric administration. Blood was collected at different time points and analyzed for drug concentration and complement activity. The drug concentration in plasma was determined by LC-MS/MS. The complement activity in serum was determined using a wieslab assay (Svar Life Science AB, COMPL AP330 RUO) kit, Normal Human Serum (Complement Technology, NHS).

In series [7] the test system is Streptococcus-induced rheumatoid arthritis. Put plainly: Streptococcus-induced rheumatoid arthritis (RA) model in rats. The format is in vivo, Lewis rats. To be noted: 15 mpk intragastric daily for 25 days, FIG. 3. How it is done:
In the experiment, six- to nine-week-old female Lewis rats (Beijing Vital River) were used. Each group consisted of 6 rats, and they were given the cell wall peptidoglycan complexes of Streptococcus and several other species of bacteria by intraperitoneal administration (2-3 mg per rat) on D1, and were given the control compound (15 mpk) and Example 5 (15 mpk) by intragastric administration daily for 25 consecutive days. The arthritis in rats was scored in different phases. The scoring criteria are as follows: Scoring according to the degree of lesion (redness and swelling) was performed on a scale of 0-4 points, with a maximum score of 4 for each limb and a total maximum score of 16 for each animal's limbs. The scoring criteria are as follows: 0 points: no redness and swelling; 1 point: 1-2 red and swollen interphalangeal joints; 2 points: 3-4 red and swollen interphalangeal joints; 3 points: more than 4 red and swollen interphalangeal joints; 4 points: severe redness and swelling in toes or fingers to ankle joints or wrist joints.

Consider one compound from patent US20230286947A1, “COMPLEMENT FACTOR B INHIBITOR, AND PHARMACEUTICAL COMPOSITION, PREPARATION METHOD AND USE THEREOF” (SHANGHAI MEIYUE BIOTECH DEVELOPMENT CO. LTD, priority 2020, published 2023).

The structures appear in SMILES notation.

By IC50 is commonly meant the concentration at which inhibition is half-maximal. For orientation: AUC(0-inf) means total exposure, with the tail of the curve extrapolated. One may read the AUC(0-t) as the area under the concentration-time curve up to a stated or last time point. A word on the Cmax: it is the maximum level reached in the sampled fluid or tissue. As a reminder, the Tmax is the time at which the peak concentration occurs.

T1 sequence (P00751 26-764): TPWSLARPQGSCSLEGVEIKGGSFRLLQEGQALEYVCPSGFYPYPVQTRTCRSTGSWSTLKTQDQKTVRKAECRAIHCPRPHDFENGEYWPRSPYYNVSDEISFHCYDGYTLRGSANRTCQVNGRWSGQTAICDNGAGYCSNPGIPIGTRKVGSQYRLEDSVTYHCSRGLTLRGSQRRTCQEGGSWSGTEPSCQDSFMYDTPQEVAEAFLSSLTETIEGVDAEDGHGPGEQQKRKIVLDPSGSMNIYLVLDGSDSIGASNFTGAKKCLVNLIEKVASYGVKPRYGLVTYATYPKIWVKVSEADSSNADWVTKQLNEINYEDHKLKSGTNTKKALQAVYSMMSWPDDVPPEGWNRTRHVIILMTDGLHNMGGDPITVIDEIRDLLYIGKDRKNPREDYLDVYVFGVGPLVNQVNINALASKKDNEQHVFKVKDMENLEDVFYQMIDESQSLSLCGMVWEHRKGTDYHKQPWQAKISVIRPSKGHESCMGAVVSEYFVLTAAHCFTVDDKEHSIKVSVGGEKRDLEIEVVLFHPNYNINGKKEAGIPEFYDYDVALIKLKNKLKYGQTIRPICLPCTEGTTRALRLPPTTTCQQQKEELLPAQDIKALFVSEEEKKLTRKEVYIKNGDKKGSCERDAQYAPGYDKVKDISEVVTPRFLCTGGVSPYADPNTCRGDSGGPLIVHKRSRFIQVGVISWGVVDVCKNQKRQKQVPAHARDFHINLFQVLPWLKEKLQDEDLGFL
Chain of Complement factor B (P00751 26-764): as above

Turning to `COc1cc(C)c2[nH]ccc2c1CN1CC[C@H](OCC2CC2)C[C@H]1c1ccc(C(=O)O)cc1` [Example 5], the “binding capacity to the target protein compared with the control compound” value at Complement factor B (at a concentration of 500 μM) is on record as “significantly better than the control compound”. Also, the “Rmax (RU)” value at Complement factor B (test compound 500 μM, 25° C., 1:1 binding model) is 274.2 RU. For the same compound, in series [1] (hemolysis of rabbit erythrocytes), the “inhibitory activity against complement factor B in human serum compared with the control compound” value is “significantly better inhibitory activity against complement factor B in human serum than the control compound”. In series [1] (rabbit erythrocytes, normal human serum, 37° C., read-out: Hemolysis IC50), the IC50 was determined as 87.9 nM. Also, in series [2] (SD, pH 7.4, rat liver microsomes, NADPH, read-out: MMS (rat) T1/2), the half-life at 1 µM came out at 9.13 h. The “MMS (rat) Remaining (T = 90 min)” value in series [2] (rat liver microsomes, T = 90 min) is 89.14%. Besides, in series [2] (statement covers rat, monkey and human liver microsomes (Table 3)), the “liver microsomal stability (in words)” value was “more significant liver microsomal stability”. The “MMS (monkey) Remaining (T = 90 min)” value in series [3] (T = 90 min) turned out to be 93.32%. In addition, the half-life at 1 µM in series [3] (pH 7.4, NADPH, read-out: MMS (monkey) T1/2) was 12.8 h. The “MMS (human) Remaining (T = 90 min)” value in series [4] (human liver microsomes, T = 90 min) is listed as 91.04%. For the same compound, the half-life at 1 µM in series [4] (pooled liver microsomes, pH 7.4, NADPH, read-out: MMS (human) T1/2) was determined as 11.2 h. Further, in series [5], the AUC(0-inf) came to 3280 ng·h/mL, the AUC(0-t) was 3120 ng·h/mL, the peak level (Cmax) was 1920 ng/mL and the Tmax amounted to 0.25 h. Further, the half-life in series [5] is 1.58 h. For the same compound, in series [6], the “mean plasma concentration compared with the control compound” value is “significantly higher mean plasma concentration than the control compound”. Moreover, in series [7], the arthritis score entry was “can improve the arthritis score” and the “effect on arthritis score compared with the control compound” value is listed as “significantly better effect than the control compound”.
